Patent publication US12319915B2, “Cytotoxic fluoropyrimidine polymers and methods of use thereof” (Wake Forest University Health Sciences, priority 2018, dated 2025)

Tests used:
SW620 = test: NCI60 cell line screen, SW620; type: cell-based; settings: Homo sapiens, SW-620; SW620, NCI 60 cell line screen
HT-29 = test: NCI60 cell line screen, HT-29; type: cell-based; settings: Homo sapiens; HT-29, NCI 60 cell line screen
[1] = tested on: HCT-116-luc orthotopic xenografts
Source text: Orthotopic Colorectal Model. Protocol was followed per Tseng et al.'s previous study (Tseng W. et al., Vis Exp, 2007 (10): p. 484). A xenograft tumor was formed as described above using HCT116-luc cells. Once the tumor reached a size large enough for transplantation, mice were euthanized and tumor tissue was removed. The tumor was divided into 2-3 mm pieces and placed in PBS on ice. BALB/c mice were put under anesthesia, and the abdomen was prepped with a betadine solution. A laparotomy was performed in the abdomen and the cecum was exposed. The cecal wall was slightly damaged to allow cell invasion. A piece of tumor tissue was then attached to the outside of the cecum by a figure-8 stitch using a 9-O-nylon suture. The cecum is returned to the cavity and the abdomen wall is closed up using 6-0 coated vycryl sutures. A rectal thermometer monitored the internal temperature of the mice during surgery. Mouse recovery was monitored closely and mice were given Meloxicam every day for 3 days to alleviate pain along with normal saline to keep the mice hydrated. Tumor volume and cell progression was monitored using an IVIS live imaging system for evaluated total proton flux. […] CF10 was dosed 2×/week every week at 360 mg/kg (n=8 study 1; n=2 in study 2). All drugs, or vehicle (0.9% saline; n=8 study 1; n=6 study 2) were administered by i.p. injection in 200 μL volume.
Animal Imaging. Pierce D-Luciferin (Thermo Scientific) was injected subcutaneous using a 28-gauge needle 15 minutes before imaging. Mice were placed in an anesthesia chamber with 1.5% isoflurane and then transferred to the IVIS stage under 2% isoflurane using a nose cone placing the mice on their back. IVIS Lumina LT Series III machine was used for all mouse images. All images were analyzed at the end of the time experiment using the same Living Image software. A region of interest was placed on the mouse′ midsection and determined the total flux in that region. The region of interest remained identical for each mouse. Graphs were plotted as total flux per mouse for each week.
Statistical Analysis. All statistical analyses were conducted using SAS 9.4 using a mixed models approach. Baseline flux from IVIS imaging measurement, group, time and group-by-time interaction were included as fixed effects. The animals were included as random effects to account for the within animal correlation. Survival differences among treatment groups were determined using a log-rank test.
Histology Analysis. Tissues from select mice from all treatment groups were removed from animals after undergoing euthanasia by intra-cardiac administration of KCl solution. In some instances, mice were injected with luciferin ˜20 min prior to euthanasia and tissue extraction to permit IVIS imaging of extracted tissue. Tumors were weighed after removal and in instances where there was suspicion of possible metastases to liver, lung, or other organs tissue from these organs was removed and if luciferin was administered prior to euthanasia, these tissues were imaged using the IVIS system. All tissues were fixed in 10% neutral buffered formalin for 24 h followed by transfer to 70% ethanol. Following routine processing in xylene, tissues were sectioned at 4 μm and stained with Hematoxylin and Eosin and evaluated by light microscopy by a veterinary pathologist.

HCC2998 = test: NCI60 cell line screen, HCC2998; type: cell-based; settings: Homo sapiens, HCC 2998; HCC2998, NCI 60 cell line screen
KM-12 = test: NCI60 cell line screen, KM-12; type: cell-based; settings: Homo sapiens, KM12; KM-12, NCI 60 cell line screen
HCT-116 flank tumors = test: HCT-116 flank xenograft model; settings: 5-FU 70 mg/kg i.p. 2× per week every other week
Procedure: Animal Model. […] All of the animal experiments were performed on six-to-eight-week-old female BALB/c mice.
Xenograft Model. HCT116 cells (3×10^6 cells) were suspended in ice-cold PBS and mixed 1:1 with Matrigel and subcutaneously injected into the flanks of Balb/nude mice. Tumor growth and mice health were monitored daily until the tumor reached a volume of 100-200 mm^3 (about two weeks). Tumor measurements were taken using electronic digital calipers twice a week, along with mouse weight. Tumor volume (V) was calculated as V=π/6 (L×W^2). 5-FU (70 mg/kg 2×/wk every other week) or CF10 (300 mg/kg) were dosed by intraperitoneal (i.p.) injection using a 28-gauge needle. Mice requiring removal from study due to large tumor burden or weight-loss were euthanized in accord with AVMA guidelines.

HCT-116 = test: NCI60 cell line screen, HCT-116; type: cell-based; settings: Homo sapiens; HCT-116, NCI 60 cell line screen
[2] = cited from earlier work
COLO205 = test: NCI60 cell line screen, COLO205; type: cell-based; settings: Homo sapiens, COLO 205; COLO205, NCI 60 cell line screen
[3] = target: T1, thymidylate synthase (TS) (Homo sapiens, UniProt P04818); test: Thymidylate synthase activity in lysates of treated HCT116 cells; type: cell-based; settings: HCT-116 cells, 100 nM
T1 construct: Cell lysate aliquots (400 μg of protein) were added to the reaction buffer; endogenous in cells; host or cells: HCT116 human colorectal cancer cells
Procedure: Thymidylate Synthase Activity. TS activity assays were performed using well-established procedures. HCT116 cells were plated at a density of 1.0-1.5×10^6 cells in […] plates. Cells were grown overnight in DMEM media with 10% FBS to allow the cells to adhere and begin to grow. Drugs were then added to the medium and the cells were incubated for the indicated time (24 h or 48 h). Cells were then harvested in 25 mM Tris-HCl, pH 7.4 with Complete Protease Inhibitor Cocktail present (as per instructed, Roche), put through two freeze/thaw cycles, and vigorously vortexed. The lysates were centrifuged at 10,000×g for 10 min at 4° C. The supernatants were assayed for protein concentration and TS catalytic activity. TS catalytic assays were performed in a final volume of 200 μL containing freshly prepared 75 μM 5,10 methylene tetrahydrofolate in 0.5 M NaOH (Schircks Laboratories, Switzerland), 10 μM dUMP, 200,000 dpm of 3H-dUMP (Moravek Biochemicals), 100 μM 2-mercaptoethanol, and 25 mM KH2PO4, pH 7.4. Cell lysate aliquots (400 μg of protein) were added to the reaction buffer and lysis buffer was used to adjust the final volume. The reaction mixture was incubated at 37° C. for 30 min, then stopped by addition of 100 μL of ice-cold, 20% TCA. Stopped reactions were maintained 5 min on ice. […] Reactions were then centrifuged, and aliquots of the supernatant were read by scintillation counting.

HCT-15 = test: NCI60 cell line screen, HCT-15; type: cell-based; settings: Homo sapiens; HCT-15, NCI 60 cell line screen
HCT-116 cells = test: cells; settings: Homo sapiens, HCT-116, 96 h, read-out: potency (cytotoxicity) to HCT-116 cells
Source text: Cell Lines and Drugs. HCT-116 human CRC cells were supplied by GRCF Biorepository & Cell Center (Johns Hopkins University). HCT116 cells were infected with UBC-GFPLuc-LV by the Cell and Viral Vector Laboratory at Wake Forest School of Medicine to generate luciferase-expressing HCT116-luc cells. These cells also express GFP. All human CRC cell lines were maintained in Dulbecco's Modified Eagle Medium (DMEM; Lonza, Switzerland) supplemented with 10% fetal bovine serum (FBS; Sigma, St. Louis, Missouri). Cell lines were cultured in conditions of 37° C. and 5% CO2 and were confirmed negative for mycoplasma.
Cell Culture. Cells were seeded in 96-well plates at the appropriate density in 200 μL medium and incubated for 37° C. overnight for cell attachment. […] Compounds were serially-diluted in either water or DMSO (final DMSO percentage<1%) to a stock concentration, and an equal amount of drug was added to the exponentially growing cells for each tested concentration. All drugs were filtered in 0.22 μm filter before use.
Cell Viability. CellTiter-Glo (Promega, Wisconsin) was used to determine cell viability. Assays were performed according to the manufacturer's instructions. Cell viability was normalized and calculated as a relative percentage of the averaged vehicle control.

T1 sequence (P04818 2-313 limits assumed): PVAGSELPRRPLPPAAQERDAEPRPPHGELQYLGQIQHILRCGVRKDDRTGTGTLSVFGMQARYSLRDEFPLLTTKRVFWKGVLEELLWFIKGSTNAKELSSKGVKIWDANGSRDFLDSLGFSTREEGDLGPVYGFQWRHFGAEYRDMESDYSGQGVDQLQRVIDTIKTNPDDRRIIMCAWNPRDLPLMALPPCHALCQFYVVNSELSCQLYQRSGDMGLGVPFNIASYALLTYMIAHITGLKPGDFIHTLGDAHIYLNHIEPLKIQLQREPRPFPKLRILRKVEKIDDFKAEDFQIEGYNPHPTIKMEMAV

## O=c1[nH]cc(F)c(=O)[nH]1 [5-FU, 5-fluorouracil]
SW620
  GI50: 28.2 µM
HT-29
  GI50: 6.76 µM
[1]; 5-FU average at week 5, CF10 one mouse at week 8
  primary tumor weight: 1.0 g
[1]; autopsy at week 5
  mice with putative metastatic tissue: 2/4
[1]; mouse, in vivo, ip, 100 mg/kg
  tolerability: toxic
[1]; orthotopic HCT-116-luc
  effect on survival: no significant effect on survival
[1]; orthotopic HCT-116-luc, i.p.
  median survival: 31 days
  tumor growth (rate of change in flux, IVIS): decrease tumor growth relative to control
HCC2998
  GI50: 1.51 µM
KM-12
  GI50: 8.71 µM
HCT-116 flank tumors
  day post-treatment by which all mice required euthanasia: ≤ 16 days
HCT-116 flank tumors; CF10 300 mg/kg i.p. 2×/week
  weight loss: greater weight loss than mice in the other treatment groups
HCT-116
  GI50: 4.07 µM
[2]
  half-life: ~15 min
COLO205
  GI50: 6.92 µM
[3]; 24 h
  TS enzymatic activity: reduced TS activity
[3]; 48 h
  TS enzymatic activity: ~75 % control values
HCT-15
  GI50: 5.62 µM
HCT-116 cells
  IC50: 21 µM
